Reference: US8748632B2, “Positive allosteric modulators of group II mGluRs” (Sanford-Burnham Medical Research Institute, priority 2010, dated 2014)

Molecular target: mGluR2 (Rattus norvegicus, UniProt P31421)
Assay: mGluR2 PAM (positive allosteric modulator) EC50
Type: cell-based
Details: positive allosteric modulator activity

mGluR2, sequence (P31421 19-872): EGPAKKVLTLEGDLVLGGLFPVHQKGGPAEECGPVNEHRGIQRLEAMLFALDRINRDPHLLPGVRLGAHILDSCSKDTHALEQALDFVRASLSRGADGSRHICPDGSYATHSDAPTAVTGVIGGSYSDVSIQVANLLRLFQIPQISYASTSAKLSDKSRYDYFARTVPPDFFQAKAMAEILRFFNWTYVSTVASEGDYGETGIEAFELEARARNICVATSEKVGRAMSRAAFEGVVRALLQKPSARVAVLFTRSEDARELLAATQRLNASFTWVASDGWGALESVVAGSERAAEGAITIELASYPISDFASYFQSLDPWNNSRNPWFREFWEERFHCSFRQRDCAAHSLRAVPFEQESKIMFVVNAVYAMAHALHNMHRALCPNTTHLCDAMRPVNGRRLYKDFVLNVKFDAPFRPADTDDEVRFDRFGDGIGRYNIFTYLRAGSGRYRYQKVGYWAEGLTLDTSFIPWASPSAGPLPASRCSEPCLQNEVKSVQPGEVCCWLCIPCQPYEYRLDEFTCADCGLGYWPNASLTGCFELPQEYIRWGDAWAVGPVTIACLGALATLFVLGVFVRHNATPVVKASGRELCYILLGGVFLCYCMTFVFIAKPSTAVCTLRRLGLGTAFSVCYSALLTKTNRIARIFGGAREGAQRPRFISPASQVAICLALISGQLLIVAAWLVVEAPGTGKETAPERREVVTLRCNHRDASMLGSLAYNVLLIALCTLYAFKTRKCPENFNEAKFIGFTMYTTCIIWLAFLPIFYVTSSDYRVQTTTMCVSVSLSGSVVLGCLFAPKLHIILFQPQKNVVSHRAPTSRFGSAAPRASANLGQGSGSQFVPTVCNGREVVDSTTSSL

## O=C(O)c1cc(-c2cccc(COc3ccc4c(=O)n(C5CCCCC5)oc4c3)c2)ccc1Cl [Example 61, 4-Chloro-3′-((2-cyclohexyl-3-oxo-2,3-dihydrobenzo[d]isoxazol-6-yloxy)methyl)biphenyl-3-carboxylic acid]
  mGluR2 PAM EC50(μM): desensitizes
